Reference: patent publication US10131652B2, “Pyrimidinyloxy benzene derivatives as herbicides” (E. I. DU PONT DE NEMOURS AND COMPANY, priority 2014, dated 2018)

Key:
Format in all cases: in vivo
[1] = test system: galium (catchweed bedstraw, Galium aparine); experiment: Test B postemergence plant response
Procedure, shortened: (§1)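 Values are visual control ratings (0 to 100) recorded approximately 10 days after postemergence application to greenhouse-grown plants of 2 to 10 cm, one- to two-leaf stage, each judged against untreated controls.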

[2] = test system: blackgrass (Alopecurus myosuroides); experiment: Test B postemergence plant response
Procedure, shortened: as §1

[3] = test system: Italian ryegrass (Lolium multiflorum); experiment: Test B pre-/postemergence plant response
Excerpt: (§2) Seeds of plant species selected from bamyardgrass (Echinochloa crus-galli), kochia (Kochia scoparia), ragweed (common ragweed, Ambrosia elatior), Italian ryegrass (Lolium multiflorum), large (Lg) crabgrass (Digitaria sanguinalis), giant foxtail (Setaria faberii), momingglory (Ipomoea spp.), pigweed (Amaranthus retroflexus), velvetleaf (Abutilon theophrasti), wheat (Triticum aestivum), and corn (Zea mays) were planted into a blend of loam soil and sand and treated preemergence with a directed soil spray using test chemicals formulated in a non-phytotoxic solvent mixture which included a surfactant. At the same time, plants selected from these crop and weed species and also blackgrass (Alopecurus myosuroides), and galium (catchweed bedstraw, Galium aparine) were planted in pots containing the same blend of loam soil and sand and treated with postemergence applications of test chemicals formulated in the same manner. Plants ranged in height from 2 to 10 cm and were in the one- to two-leaf stage for the postemergence treatment. Treated plants and untreated controls were maintained in a greenhouse for approximately 10 days, after which time all treated plants were compared to untreated controls and visually evaluated for injury. Plant response ratings, summarized in Table B, are based on a 0 to 100 scale where 0 is no effect and 100 is complete control. A dash (-) response means no test result.

[4] = test system: pigweed (Amaranthus retroflexus); experiment: Test B pre-/postemergence plant response
Excerpt: as §2

[5] = test system: corn (Zea mays); experiment: Test B pre-/postemergence plant response
Excerpt: as §2

[6] = test system: barnyardgrass (Echinochloa crus-galli); experiment: Test B pre-/postemergence plant response
Excerpt: as §2

[7] = test system: kochia (Kochia scoparia); experiment: Test B pre-/postemergence plant response
Excerpt: as §2

[8] = test system: ragweed (common ragweed, Ambrosia elatior); experiment: Test B pre-/postemergence plant response
Excerpt: as §2

[9] = test system: wheat (Triticum aestivum); experiment: Test B pre-/postemergence plant response
Excerpt: as §2

[10] = test system: giant foxtail (Setaria faberii); experiment: Test B pre-/postemergence plant response
Excerpt: as §2

[11] = test system: small-flower umbrella sedge (Cyperus difformis); experiment: Test C flooded paddy test plant response; details: Flood, 250 g ai/ha; scale of 0 to 100 where 0 is no effect and 100 is complete control; 13 to 15 days
Procedure, shortened: (§3)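 Water-applied treatment: compounds go directly into floodwater standing 3 cm over the soil of pots holding 2-leaf-stage plants. Depth is kept constant; plants stay in a greenhouse 13 to 15 days before visual comparison with controls on a 0–100 scale.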

[12] = test system: barnyardgrass (Echinochloa crus-galli); experiment: Test C flooded paddy test plant response; details: Flood, 250 g ai/ha; scale of 0 to 100 where 0 is no effect and 100 is complete control; 13 to 15 days
Procedure, shortened: as §3

[13] = test system: ducksalad (Heteranthera limosa); experiment: Test C flooded paddy test plant response; details: Flood, 250 g ai/ha; scale of 0 to 100 where 0 is no effect and 100 is complete control; 13 to 15 days
Procedure, shortened: as §3

[14] = test system: rice (Oryza sativa); experiment: Test C flooded paddy test plant response; details: Flood, 250 g ai/ha; scale of 0 to 100 where 0 is no effect and 100 is complete control; 13 to 15 days
Procedure, shortened: as §3

[15] = 125 g ai/ha, postemergence, 0 to 100 scale, 0 no effect, 100 complete control
[16] = 31 g ai/ha, Postemergence, 0 to 100 scale, 0 no effect, 100 complete control
[17] = 31 g ai/ha, Preemergence, 0 to 100 scale where 0 is no effect and 100 is complete control
[18] = Preemergence, 125 g ai/ha, 0 to 100 scale (0 no effect, 100 complete control)
[19] = Postemergence, 500 g ai/ha, 0 to 100 scale (0 no effect, 100 complete control)
[20] = Preemergence, 500 g ai/ha, 0 to 100 scale where 0 is no effect and 100 is complete control

| SMILES | Plant response rating, Galium [1, 15] | Plant response rating, Blackgrass [2, 15] | Plant response rating, Ryegrass, Italian [3, 15] | Ryegrass, Italian plant response rating [3, 18] | Plant response rating, Pigweed [4, 15] | Pigweed plant response rating [4, 18] | Plant response rating, Corn [5, 15] | Plant response rating, Barnyardgrass [6, 15] | Barnyardgrass plant response rating [6, 18] | Plant response rating, Kochia [7, 15] | Kochia plant response rating [7, 18] | Plant response rating, Ragweed [8, 15] | Ragweed plant response rating [8, 18] | Plant response rating, Wheat [9, 15] | Plant response rating, Foxtail, Giant [10, 15] | Foxtail, Giant plant response rating [10, 18] | Sedge, Umbrella plant response rating [11] | Barnyardgrass plant response rating [12] | Ducksalad plant response rating [13] | Rice plant response rating [14] | other results |
| --- | --- | --- | --- | --- | --- | --- | --- | --- | --- | --- | --- | --- | --- | --- | --- | --- | --- | --- | --- | --- | --- |
| FC(F)(F)COCc1cc(-c2ccccc2Oc2ncc(Cl)cn2)on1 [Compound 128] | 30 | 20 | 0 | 0 | 60 | 40 | 10 | 10 | 0 | 50 | 0 | 10 | 0 | 0 | 10 | 10 | 0 | 0 | 0 | 0 | Plant response rating, Blackgrass [2, 16]: 0; Plant response rating, Ryegrass, Italian [3, 17]: 0; Plant response rating, Pigweed [4, 17]: 0; Plant response rating, Corn [5, 16]: 0; Plant response rating, Barnyardgrass [6, 16]: 0; Plant response rating, Barnyardgrass [6, 17]: 0; Plant response rating, Kochia [7, 17]: 0; Plant response rating, Ragweed [8, 17]: 0; Plant response rating, Foxtail, Giant [10, 16]: 0; Plant response rating, Foxtail, Giant [10, 17]: 0 |
| FC(F)(F)COCc1cc(-c2ccccc2Oc2ncc(Br)cn2)on1 [Compound 129] | 10 | 0 | 0 | 0 | 30 | 0 | 10 | 10 | 0 | 10 | 0 | 0 | 0 | 0 | 10 | 0 | 0 | 0 | 0 | 0 | Plant response rating, Blackgrass [2, 16]: 0; Plant response rating, Ryegrass, Italian [3, 17]: 0; Plant response rating, Pigweed [4, 17]: 0; Plant response rating, Corn [5, 16]: 0; Plant response rating, Barnyardgrass [6, 16]: 0; Plant response rating, Barnyardgrass [6, 17]: 0; Plant response rating, Kochia [7, 17]: 0; Plant response rating, Ragweed [8, 17]: 0; Plant response rating, Foxtail, Giant [10, 16]: 0; Plant response rating, Foxtail, Giant [10, 17]: 0 |
| FC(F)Oc1cccc(Oc2ncc(Cl)cn2)c1-c1cc(C(F)F)no1 [Compound 132] | 90 | 50 | 40 | 30 | 100 | 100 | 30 | 50 | 60 | 60 | 0 | 30 | 40 | 10 | 70 | 90 | 75 | 30 | 40 | 20 | Plant response rating, Blackgrass [2, 16]: 20; Plant response rating, Ryegrass, Italian [3, 17]: 0; Plant response rating, Pigweed [4, 17]: 90; Plant response rating, Corn [5, 16]: 10; Plant response rating, Barnyardgrass [6, 16]: 20; Plant response rating, Barnyardgrass [6, 17]: 20; Plant response rating, Kochia [7, 17]: 0; Plant response rating, Ragweed [8, 17]: 0; Plant response rating, Foxtail, Giant [10, 16]: 30; Plant response rating, Foxtail, Giant [10, 17]: 60 |
| FC(c1cc(-c2ccccc2Oc2ncc(Cl)cn2)no1)C(F)(F)F (stereo not drawn) [Compound 133] | 100 | 70 | 30 | 50 | 100 | 100 | 30 | 60 | 70 | 90 | 90 | 30 | 10 | 10 | 50 | 90 | 80 | 40 | 80 | 40 | Plant response rating, Blackgrass [2, 16]: 30; Plant response rating, Ryegrass, Italian [3, 17]: 0; Plant response rating, Pigweed [4, 17]: 90; Plant response rating, Corn [5, 16]: 10; Plant response rating, Barnyardgrass [6, 16]: 20; Plant response rating, Barnyardgrass [6, 17]: 30; Plant response rating, Kochia [7, 17]: 50; Plant response rating, Ragweed [8, 17]: 0; Plant response rating, Foxtail, Giant [10, 16]: 20; Plant response rating, Foxtail, Giant [10, 17]: 70 |
| FC(F)(F)c1csc(-c2ccccc2Oc2ncc(Cl)cn2)n1 [Compound 137] | 0 | 0 | 0 | 0 | 30 | 0 | 0 | 0 | 0 | 0 | 0 | 0 | 0 | 0 | 0 | 0 | 0 | 0 | 20 | 0 | Plant response rating, Galium [1, 19]: 20; Plant response rating, Blackgrass [2, 19]: 0; Plant response rating, Ryegrass, Italian [3, 19]: 0; Plant response rating, Ryegrass, Italian [3, 20]: 0; Plant response rating, Pigweed [4, 19]: 90; Plant response rating, Pigweed [4, 20]: 20; Plant response rating, Corn [5, 19]: 20; Plant response rating, Barnyardgrass [6, 19]: 10; Plant response rating, Barnyardgrass [6, 20]: 10; Plant response rating, Kochia [7, 19]: 60; Plant response rating, Kochia [7, 20]: 10; Plant response rating, Ragweed [8, 19]: 0; Plant response rating, Ragweed [8, 20]: 0; Plant response rating, Wheat [9, 19]: 0; Plant response rating, Foxtail, Giant [10, 19]: 20; Plant response rating, Foxtail, Giant [10, 20]: 0 |
